Here are results for one compound from patent US10624917B2, “Compositions and methods useful for treating or preventing liver diseases or disorders, and promoting weight loss” (YALE UNIVERSITY, priority 2014, dated 2020).

Data set [1] has as its system TNF-α, IL-10 and IFN-γ secretion. Put plainly: ELISA of other cytokines in PEC supernatants. The format is cell-based, mouse. As to conditions: LPS + ATP, adenosine deaminase inhibition. How it is done: (§1) FIGS. 1A-1J illustrate the finding that adenosine stimulates IL-1β production in NLRP3 inflammasome-dependent manner. Murine peritoneal macrophages (PECs) were obtained from wild type (WT) mice (FIGS. 1A-1D, 1F-1I), Il1r−/− (FIG. 1E) or Nlrp3−/−, ASC−/−, P2xr7−/−, or Caspase-1−/− mice (FIG. 1J) and were primed with LPS for 16 hours. FIG. 1A: This was followed by treatment for 1 hour with adenosine (Ad, 100 μM), adenosine deaminase inhibitor (EHNA, 10 μM), adenosine deaminase (ADA, 10 U ml^−1), ATP diphosphohydrolase (Apyrase, 10 U ml^−1), or erythro-9-(2-hydroxy-3-nonyl) adenine (EHNA, 10 μM) (FIGS. 1B, 1F-1J)). Pan adenosine agonist (NECA, 1 μM, 10 μM) (FIGS. 1C, 1E), or (FIGS. 1D, 1I) by NECA for 1 and 6 hours, and were then pulsed with ATP for 20 min. Enzyme-linked immunosobent assay (ELISA) of IL-1β, TNF-α, IL-10 and IFN-γ secretion were measured in cell supernatants after pulsing with ATP for 5 hours (FIGS. 1A, 1C-1E, 1J) or indicated time-course (FIGS. 1B, 1G-1I). LDH assay was performed after pulsing with ATP as indicated time-course (FIG. 1F). Data are expressed as the mean±SD from at least three independent experiments. *p<0.05 determined by Student's t-test.

For data set [2], the system named is IL-1β production in murine peritoneal macrophages (PECs). Put plainly: IL-1β secretion (ELISA) by primed, ATP-pulsed peritoneal macrophages (PECs). Type of data set: cell-based, mouse. How it is done: as §1
C57BL/6 mice were purchased from the National Cancer Institute. ASC−/−, Caspase-1−/−, Nlrp3−/− and P2xr7−/− mice have been described (Rock et al., 2010, Annu Rev Immunol. 28:321-42). A2ora2a flox/flox mice and LysMcre mice were purchased from Jackson Laboratories. HIF-1a flox/flox mice were kindly provided by Dr. Ruslan M Medzhitov (Yale University). 7- to 12-week-old males with a variety of genetic manipulations were used in most experiments. The number of mice in each experimental group was chosen based on previous experience with these experimental models. Mouse peritoneal macrophages (PECs) were isolated by peritoneal lavage 3 days after intraperitoneal injection of 4% thioglycollate solution (B2551, Fluka,). Cells were plated at the density of 3×10^6 cells in 12-well dishes and non-adherent cells were removed after 3 h. Cells primed overnight with 100 ng/ml LPS or 10 ng/ml Pam3CSK4 were treated with various chemicals and followed stimulation. Cells were cultured in DMEM medium complemented with 10% FBS, penicillin/streptomycin and L-glutamine. Mouse bone marrow derived macrophages were isolated from bone marrow cells, and were differentiated for 7 days in complete RPMI-1640 medium supplemented with 2 mM L-glutamine, 100 U/ml penicillin, 100 μg/ml streptomycin, 50 μM 2-mercaptoethanol (all from Invitrogen), 10% heat-inactivated FBS and 20 ng/ml M-CSF (PeproTech). Kupffer cells (KC) were isolated by the density gradient separation of Optiprep (Sigma), and then plates were gently washed and media was replenished after seeding cells for 2 hours to raise KC purity.
Primed PECs were both pulsed for 20 min with 5 mM ATP or 10 μM nigericin, and left untreated until culture supernatants were collected. Secretion of IL-1β was determined by enzyme-linked immunoabsorbent assay (ELISA; R&D Systems).

A further data set has as its system PECs. Kind of data set: LDH release (cell death) assay in PECs. Type of data set: cell-based. The conditions noted are these: LPS + ATP treated PECs. How it is done: as §1, with “Pan adenosine agonist (NECA, 1 μM, 10 μM) (FIGS. 1C, 1E), or (FIGS. 1D, 1I) by NECA for 1 and 6 hours, and were then pulsed with ATP for 20 min.” left out, “LDH assay was performed after pulsing with ATP as indicated time-course (FIG. 1F).” left out
FIGS. 2A-2H illustrate the finding that adenosine mediates increase in IL-1β via the A2A receptor and amplifies signal 1 and signal 2 pathways. […] Data are expressed as the mean±SD from at least three independent experiments Immunoblots shown are representative results from at least three independent experiments. p<0.05 determined by Student's t-test.

For data set [3], the system named is IL-1β production in murine peritoneal macrophages (PECs). Put plainly: IL-1β secretion (ELISA) by primed, ATP-pulsed peritoneal macrophages (PECs). Type of data set: cell-based, mouse. The conditions noted are these: CpG-B and ATP.

For the compound `CCCCCC[C@@H]([C@@H](C)O)n1cnc2c(N)ncnc21` (racemic) [EHNA, erythro-9-(2-hydroxy-3-nonyl) adenine], in data set [1], the “production of IFN-γ” value is given as “increase”, the “production of IL-10” value is given as “no effect” and the “production of TNF-α” value is given as “reduction”. For the same compound, the “IL-1β production, time course” value in data set [2] (LPS + ATP, time course) is given as “sustained increase”. In addition, in data set [2] (LPS-primed PECs pulsed with ATP), the IL-1β production result was “significant increase”. Also, the IL-1β production result in data set [2] (in the absence of either LPS or ATP) is listed as “did not result in any detectable IL-1β”. Besides, the “IL-1β production by LPS and ATP” value in data set [2] (macrophages lacking caspase-1, NLRP3, ASC or P2x7 receptor) is reported as “did not result in significant production of IL-1β”. For the same compound, the “LDH (lactate dehydrogenase) release, cell death” value in the data set with PECs is reported as “did not show correlation with the secretion of IL-1β”. In data set [3], the IL-1β production entry is recorded as “increase”.
